In patent US10370339B2, “N-Methylbenzimidazoles as mIDH1 inhibitors” (BAYER PHARMA AKTIENGESELLSCHAFT, priority 2015, dated 2019) one finds IC50 data, which are given here for 44 compounds.

SMILES strings stand for the structures.

Sequence of IDH1 R132H enzyme (O75874 whole entry R132H): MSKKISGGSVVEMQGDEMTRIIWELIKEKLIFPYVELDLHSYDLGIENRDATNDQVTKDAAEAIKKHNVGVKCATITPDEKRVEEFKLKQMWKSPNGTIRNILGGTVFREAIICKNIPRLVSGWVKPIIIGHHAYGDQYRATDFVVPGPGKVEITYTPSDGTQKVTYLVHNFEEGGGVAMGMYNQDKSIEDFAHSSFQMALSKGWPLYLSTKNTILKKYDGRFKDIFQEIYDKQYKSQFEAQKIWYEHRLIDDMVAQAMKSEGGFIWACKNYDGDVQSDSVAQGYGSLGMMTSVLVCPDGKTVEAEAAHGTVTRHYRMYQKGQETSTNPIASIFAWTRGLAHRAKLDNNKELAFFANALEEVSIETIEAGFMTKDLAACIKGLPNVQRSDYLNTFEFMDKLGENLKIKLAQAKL
Sequence of Mutant IDH1 (LN229 R132H cells) (O75874 whole entry R132H): as above

One assay deals with IDH1 R132H enzyme (Homo sapiens (Human), UniProt O75874, R132H). Put plainly: Mutant IDH1 R132H biochemical assay. As to conditions: NADPH consumption, luminescent readout; 1.5 nM enzyme, 1 μM NADPH, 250 μM α-KG, 30 minutes, 32° C. The procedure:
Mutant IDH1 R132H Biochemical Assay mIDH1 catalyzes the NADPH-dependent reduction of alpha-ketoglutarate (a-KG) to (2R)-2-hydroxyglutarate (2-HG). NADPH consumption was measured by luminescent readout.
The biochemical reactions were performed at 32° C. in 384-well plates using a reaction volume of 41 μL and the following assay buffer conditions: 50 mM Tris pH 7.5, 100 mM NaCl, 20 mM MgCl2, 0.05% BSA, 0.01% Brij, 1 μM NADPH, and 250 μM α-KG. The IDH1 R132H enzyme was used in a final concentration of 1.5 nM. Test compounds were used in a concentration range between 0.002 and 10 μM. The final DMSO concentration was 2.4%.
The reaction was incubated for 30 minutes, then 40 μL of detection mix (0.75 μg/ml Luciferase, 0.02 U/ml Oxidoreductase, 4 μg/mL FMN, 2 μL/ml decanal/ethanol, 50 mM Tris pH 7.5, 0.5% Glycerin, 0.01% Tween-20, 0.05% BSA) was added. Luminescence was measured on a luminescent reader (10 seconds measuring time, 1 second integration period, 30% sensitivity). The decrease in luminescence is proportional to mIDH1 activity. IC50 values are determined by interpolation from plots of relative luminescence versus inhibitor concentration.
A word on the IC50: it is the concentration at which inhibition is half-maximal. The compound `COC(=O)c1ccc2c(c1)nc(Nc1ccc(OC(F)(F)F)cc1)n2[C@@H]1C[C@H](C)CC[C@H]1C(C)C` [Example 2-1, methyl 1-[(1R,2S,5R)-2-isopropyl-5-methylcyclohexyl]-2-{[4-(trifluoromethoxy)-phenyl]amino}-1H-benzimidazole-5-carboxylate] returned an IC50 of 120 nM.
Same read-out and setting: next, `COC(=O)c1ccc2c(c1)nc(Nc1ccc(C(C)C)cc1)n2[C@@H]1C[C@H](C)CC[C@H]1C(C)C` [Example 2-2]: 65 nM; `COC(=O)c1ccc2c(c1)nc(Nc1ccc(OC(C)C)cc1)n2[C@@H]1C[C@H](C)CC[C@H]1C(C)C` [Example 2-3]: 200 nM.
The same measure, in the same setting: next, `COC(=O)c1cc2nc(Nc3ccc(C(C)C)cc3)n([C@@H]3C[C@H](C)CC[C@H]3C(C)C)c2cc1C` [Example 2-5]: 40 nM.
The same measure, in the same setting: next, `COC(=O)c1cc2nc(Nc3ccc(OC(C)C)cc3)n([C@@H]3C[C@H](C)CC[C@H]3C(C)C)c2cc1C` [Example 2-6]: 220 nM; `COC(=O)c1cc2nc(Nc3ccc(OC(F)(F)F)cc3)n([C@@H]3C[C@H](C)CC[C@H]3C(C)C)c2cc1OC` [Example 2-7]: 100 nM.
Compound `COC(=O)c1cc2nc(Nc3ccc(C(C)C)cc3)n([C@@H]3C[C@H](C)CC[C@H]3C(C)C)c2cc1OC` [Example 2-8] registered an IC50 of 130 nM.
On the same count and under the same terms, next, `COC(=O)c1cc2nc(Nc3ccc(OC(C)C)cc3)n([C@@H]3C[C@H](C)CC[C@H]3C(C)C)c2cc1OC` [Example 2-9]: 280 nM; `COC(=O)Cc1ccc2c(c1)nc(Nc1ccc(OC(F)(F)F)cc1)n2[C@@H]1C[C@H](C)CC[C@H]1C(C)C` [Example 2-10]: 120 nM.
Same read-out and setting: next, `COC(=O)Cc1ccc2c(c1)nc(Nc1ccc(C(C)C)cc1)n2[C@@H]1C[C@H](C)CC[C@H]1C(C)C` [Example 2-11]: 80 nM; `COC(=O)Cc1ccc2c(c1)nc(Nc1ccc(OC(C)C)cc1)n2[C@@H]1C[C@H](C)CC[C@H]1C(C)C` [Example 2-12]: 300 nM; `COC(=O)Cc1cc2nc(Nc3ccc(OC(F)(F)F)cc3)n([C@@H]3C[C@H](C)CC[C@H]3C(C)C)c2cc1C` [Example 2-13]: 45 nM.
Still for that read-out and setting: next, `COC(=O)Cc1cc2nc(Nc3ccc(C(C)C)cc3)n([C@@H]3C[C@H](C)CC[C@H]3C(C)C)c2cc1C` [Example 2-14]: 35 nM; `COC(=O)Cc1cc2nc(Nc3ccc(OC(C)C)cc3)n([C@@H]3C[C@H](C)CC[C@H]3C(C)C)c2cc1C` [Example 2-15]: 80 nM.
`COC(=O)Cc1cc2nc(Nc3ccc(OC(F)(F)F)cc3)n([C@@H]3C[C@H](C)CC[C@H]3C(C)C)c2cc1OC` [Example 2-16]: half-maximal inhibition (IC50) was put at 70 nM.
Consider `COC(=O)Cc1cc2nc(Nc3ccc(C(C)C)cc3)n([C@@H]3C[C@H](C)CC[C@H]3C(C)C)c2cc1OC` [Example 2-17], for which 68 nM corresponded to half-maximal inhibition (IC50).
`COC(=O)Cc1cc2nc(Nc3ccc(OC(C)C)cc3)n([C@@H]3C[C@H](C)CC[C@H]3C(C)C)c2cc1OC` [Example 2-18] came in with an IC50 of 120 nM.
The compound `COC(=O)CCc1ccc2c(c1)nc(Nc1ccc(OC(F)(F)F)cc1)n2[C@@H]1C[C@H](C)CC[C@H]1C(C)C` [Example 2-19] yielded an IC50 of 95 nM.
For `COC(=O)CCc1ccc2c(c1)nc(Nc1ccc(C(C)C)cc1)n2[C@@H]1C[C@H](C)CC[C@H]1C(C)C` [Example 2-20], the midpoint of inhibition, the IC50, lay at 130 nM.
`COC(=O)CCc1ccc2c(c1)nc(Nc1ccc(OC(C)C)cc1)n2[C@@H]1C[C@H](C)CC[C@H]1C(C)C` [Example 2-21] displayed a half-inhibitory concentration (IC50) of 380 nM.
The same measure, in the same setting: next, `CC(C)[C@@H]1CC[C@@H](C)C[C@H]1n1c(Nc2ccc(OC(F)(F)F)cc2)nc2cc(C(=O)O)ccc21` [Example 2-22, 1-[(1R,2S,5R)-2-isopropyl-5-methylcyclohexyl]-2-{[4-(trifluoromethoxy)phenyl]-amino}-1H-benzimidazole-5-carboxylic acid]: 4 nM; `CC(C)c1ccc(Nc2nc3cc(C(=O)O)ccc3n2[C@@H]2C[C@H](C)CC[C@H]2C(C)C)cc1` [Example 2-23]: 6.3 nM; `CC(C)Oc1ccc(Nc2nc3cc(C(=O)O)ccc3n2[C@@H]2C[C@H](C)CC[C@H]2C(C)C)cc1` [Example 2-24]: 13 nM.
Still for that read-out and setting: next, `Cc1cc2c(cc1C(=O)O)nc(Nc1ccc(OC(F)(F)F)cc1)n2[C@@H]1C[C@H](C)CC[C@H]1C(C)C` [Example 2-25]: 8 nM; `Cc1cc2c(cc1C(=O)O)nc(Nc1ccc(C(C)C)cc1)n2[C@@H]1C[C@H](C)CC[C@H]1C(C)C` [Example 2-26]: 7.5 nM.
Still for that read-out and setting: next, `Cc1cc2c(cc1C(=O)O)nc(Nc1ccc(OC(C)C)cc1)n2[C@@H]1C[C@H](C)CC[C@H]1C(C)C` [Example 2-27]: 15 nM; `COc1cc2c(cc1C(=O)O)nc(Nc1ccc(OC(F)(F)F)cc1)n2[C@@H]1C[C@H](C)CC[C@H]1C(C)C` [Example 2-28]: 16 nM; `CC(C)c1ccc(Nc2nc3cc(CC(=O)O)ccc3n2[C@@H]2C[C@H](C)CC[C@H]2C(C)C)cc1` [Example 2-32]: 11 nM.
In turn, `CC(C)Oc1ccc(Nc2nc3cc(CC(=O)O)ccc3n2[C@@H]2C[C@H](C)CC[C@H]2C(C)C)cc1` [Example 2-33] came in with an IC50 of 45 nM.
`Cc1cc2c(cc1CC(=O)O)nc(Nc1ccc(OC(F)(F)F)cc1)n2[C@@H]1C[C@H](C)CC[C@H]1C(C)C` [Example 2-34] gave an IC50 of 6.3 nM.
Same read-out and setting: next, `Cc1cc2c(cc1CC(=O)O)nc(Nc1ccc(C(C)C)cc1)n2[C@@H]1C[C@H](C)CC[C@H]1C(C)C` [Example 2-35]: 8.3 nM.
Still for that read-out and setting: next, `Cc1cc2c(cc1CC(=O)O)nc(Nc1ccc(OC(C)C)cc1)n2[C@@H]1C[C@H](C)CC[C@H]1C(C)C` [Example 2-36]: 30 nM.
`COc1cc2c(cc1CC(=O)O)nc(Nc1ccc(OC(F)(F)F)cc1)n2[C@@H]1C[C@H](C)CC[C@H]1C(C)C` [Example 2-37] showed an IC50 of 23 nM.
Still for that read-out and setting: next, `COc1cc2c(cc1CC(=O)O)nc(Nc1ccc(C(C)C)cc1)n2[C@@H]1C[C@H](C)CC[C@H]1C(C)C` [Example 2-38]: 12 nM; `COc1cc2c(cc1CC(=O)O)nc(Nc1ccc(OC(C)C)cc1)n2[C@@H]1C[C@H](C)CC[C@H]1C(C)C` [Example 2-39]: 70 nM.
`CC(C)[C@@H]1CC[C@@H](C)C[C@H]1n1c(Nc2ccc(OC(F)(F)F)cc2)nc2cc(CCC(=O)O)ccc21` [Example 2-40] returned an IC50 of 15 nM.
In turn, `CC(C)c1ccc(Nc2nc3cc(CCC(=O)O)ccc3n2[C@@H]2C[C@H](C)CC[C@H]2C(C)C)cc1` [Example 2-41] gave an IC50 of 12 nM.
Take `CC(C)Oc1ccc(Nc2nc3cc(CCC(=O)O)ccc3n2[C@@H]2C[C@H](C)CC[C@H]2C(C)C)cc1` [Example 2-42]: the half-inhibitory concentration (IC50) worked out at 12 nM.
Same read-out and setting: next, `COC(=O)CCc1cc2nc(Nc3ccc(OC(F)(F)F)cc3)n([C@@H]3C[C@H](C)CC[C@H]3C(C)C)c2cc1OC` [Example 2-43, methyl 3-(1-[(1R,2S,5R)-2-isopropyl-5-methylcyclohexyl]-6-methoxy-2-{[4-(tri-fluoromethoxy)phenyl]amino}-1H-benzimidazol-5-yl)propanoate]: 190 nM.
On the same count and under the same terms, next, `COC(=O)CCc1cc2nc(Nc3ccc(OC(C)C)cc3)n([C@@H]3C[C@H](C)CC[C@H]3C(C)C)c2cc1OC` [Example 2-44]: 620 nM.
Regarding `COC(=O)CCc1cc2nc(Nc3ccc(C(C)C)cc3)n([C@@H]3C[C@H](C)CC[C@H]3C(C)C)c2cc1OC` [Example 2-45], it took 180 nM to reach half-maximal inhibition (IC50).
The same measure, in the same setting: next, `COc1cc2c(cc1CCC(=O)O)nc(Nc1ccc(OC(F)(F)F)cc1)n2[C@@H]1C[C@H](C)CC[C@H]1C(C)C` [Example 2-46, 3-(1-[(1R,2S,5R)-2-isopropyl-5-methylcyclohexyl]-6-methoxy-2-{[4-(trifluoromethoxy)phenyl]amino}-1H-benzimidazol-5-yl)propanoic acid]: 15 nM; `COc1cc2c(cc1CCC(=O)O)nc(Nc1ccc(OC(C)C)cc1)n2[C@@H]1C[C@H](C)CC[C@H]1C(C)C` [Example 2-47]: 2800 nM.

The target of another assay is Mutant IDH1 (LN229 R132H cells) (Homo sapiens (Human), UniProt O75874, R132H). Nature of the assay: Mutant IDH1 cellular assay (2-HG levels in medium of LN229 R132H cells). Type of assay: cell-based. As to conditions: 2-HG production in LN229 R132H cells, 24 hours incubation, fluorescence readout. The protocol:
Levels of (2R)-2-hydroxyglutarate (2HG) were measured in medium of a cell line with overexpression of mutated isocitrate dehydrogenase (mIDH) protein. mIDH catalyzes the NADPH-dependent reduction of alpha-ketoglutarate to 2-HG. Cells (LN229 R132H, Mohrenz et al., Apoptosis (2013) 18:1416-1425) were grown in DMEM containing 10% FCS. They were harvested by trypsin and seeded into 96-well plates. Cells were incubated overnight at 37° C. in 5% CO2. The next day test compounds were added to each cell well. The final concentration of DMSO was 0.1% and DMSO controls were included. The plates were then placed in an incubator for 24 hours.
2-HG was measured according to Balss et al. (Acta Neuropathol (2012) 124: 883-891). Briefly, HClO4 was added to each well and the plates were centrifuged. Aliquots are removed and incubated with hydroxyglutarate dehydrogenase (HGDH), diaphorase, NAD+, and resazurin. The conversion of resazurin to resorufin was detected by fluorescence spectroscopy at Ex 540 nm Em 600 nm. The increase in fluorescence is proportional to 2-HG production. IC50 values are determined by interpolation from plots of relative fluorescence vs inhibitor concentration.
Compound `COc1cc2c(cc1C(=O)O)nc(Nc1ccc(OC(F)(F)F)cc1)n2[C@@H]1C[C@H](C)CC[C@H]1C(C)C` [Example 2-28] returned an IC50 of 38 nM.
In turn, `COc1cc2c(cc1C(=O)O)nc(Nc1ccc(OC(C)C)cc1)n2[C@@H]1C[C@H](C)CC[C@H]1C(C)C` [Example 2-30] yielded an IC50 of 84 nM.
